The test relates to P388 leukemia ip, CD2F1 mice, survival T/C. Description: NCI In Vivo Anticancer Drug Screen. Data for tumor model P388 Leukemia (intraperitoneal) in CD2F1 (CDF1) mice. As to conditions: endpoint: median survival time, higher = longer survival. An outline of the steps: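 Mice carrying the transplanted tumor received test compound or vehicle. Survival was recorded in each group, and the value is the treated-group measurement divided by that of the vehicle-treated control group.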

[1] abbreviates: dose: 50.0 mg/kg/injection, schedule: Q01DX009 (ip), vehicle: Klucel (hydroxypropylcellulose) (HPC).
[2] abbreviates: dose: 100.0 mg/kg/injection, schedule: Q01DX009 (ip), vehicle: Klucel (hydroxypropylcellulose) (HPC).
Setting [3] is: dose: 200.0 mg/kg/injection, schedule: Q01DX009 (ip), vehicle: Klucel (hydroxypropylcellulose) (HPC).
Setting [4] is: dose: 60.0 mg/kg/injection, schedule: Q01DX005 (ip), vehicle: saline with Tween-80.
Setting [5] is: dose: 120.0 mg/kg/injection, schedule: Q01DX005 (ip), vehicle: saline with Tween-80.
Where [6] appears, read: dose: 240.0 mg/kg/injection, schedule: Q01DX005 (ip), vehicle: saline with Tween-80.
Where [7] appears, read: dose: 50.0 mg/kg/injection, schedule: Q01DX005 (ip), vehicle: Klucel (hydroxypropylcellulose) (HPC).
The mark [8] stands for this setting: dose: 100.0 mg/kg/injection, schedule: Q01DX005 (ip), vehicle: Klucel (hydroxypropylcellulose) (HPC).
Setting [9] is: dose: 200.0 mg/kg/injection, schedule: Q01DX005 (ip), vehicle: Klucel (hydroxypropylcellulose) (HPC).
[10] abbreviates: dose: 50.0 mg/kg/injection, schedule: Q01DX005 (ip), vehicle: saline with Tween-80.
The mark [11] stands for this setting: dose: 100.0 mg/kg/injection, schedule: Q01DX005 (ip), vehicle: saline with Tween-80.
Where [12] appears, read: dose: 200.0 mg/kg/injection, schedule: Q01DX005 (ip), vehicle: saline with Tween-80.
The mark [13] stands for this setting: dose: 50.0 mg/kg/injection, schedule: Q01DX009 (ip), vehicle: other.
Setting [14] is: dose: 100.0 mg/kg/injection, schedule: Q01DX009 (ip), vehicle: other.
Where [15] appears, read: dose: 200.0 mg/kg/injection, schedule: Q01DX009 (ip), vehicle: other.
The mark [16] stands for this setting: dose: 50.0 mg/kg/injection, schedule: Q01DX005 (ip), vehicle: saline.
Setting [17] is: dose: 100.0 mg/kg/injection, schedule: Q01DX005 (ip), vehicle: saline.

SMILES strings stand for the structures. “And” between values parts separate entries of the source, which are not always exact repeats. Identical values can stand only once. Toxic doses and inconclusive results are not listed.

As for `CN=C=O`, the T/C is 99 % of control (dose: 6.25 mg/kg/injection, schedule: Q01DX005 (ip), vehicle: water); 92 % of control (dose: 12.5 mg/kg/injection, schedule: Q01DX005 (ip), vehicle: water); 98 % of control (dose: 25.0 mg/kg/injection, schedule: Q01DX005 (ip), vehicle: water); 101 % of control (dose: 50.0 mg/kg/injection, schedule: Q01DX005 (ip), vehicle: water); 108 % of control (dose: 100.0 mg/kg/injection, schedule: Q01DX005 (ip), vehicle: water); 99 % of control (dose: 200.0 mg/kg/injection, schedule: Q01DX005 (ip), vehicle: water).
For `COc1cc(C(C)c2cc3c(cc2OCC(=O)O)OCO3)cc(OC)c1OC` (stereo not drawn), the T/C is, setting by setting: (dose: 50.0 mg/kg/injection, schedule: Q01DX005 (ip), vehicle: distilled water + Tween-80) 102 % of control; (dose: 100.0 mg/kg/injection, schedule: Q01DX005 (ip), vehicle: distilled water + Tween-80) 97 % of control; (dose: 200.0 mg/kg/injection, schedule: Q01DX005 (ip), vehicle: distilled water + Tween-80) 93 % of control.
In the case of `CCCCN(C)C12CN3CN(CN(C3)C1)C2`, the T/C reads like this: under setting [1], 101 % of control; under setting [2], 103 % of control; under setting [3], 96 % of control.
As to `Nc1nnc2nc(CC(=O)c3cccc([N+](=O)[O-])c3)c(CC(=O)c3cccc([N+](=O)[O-])c3)nn12`, the T/C runs as follows: under setting [4], 96 % of control; under setting [5], 100 % of control; under setting [6], 100 % of control.
Regarding `COc1ccc(CCNC(=O)C(Sc2ccccn2)c2ccccc2)cc1OC` (stereo not drawn), the T/C by setting is: under setting [7], 94 % of control; under setting [8], 103 % of control; under setting [9], 98 % of control.
For `CC(=O)OCC1OC(OC2C(COC(C)=O)OC(Sc3ccccc3)C(OC(C)=O)C2OC(C)=O)C(OC(C)=O)C(OC(C)=O)C1OC(C)=O` (stereo not drawn), the T/C is, setting by setting: under setting [7], 100 % of control; under setting [8], 100 % of control; (dose: 100.0 mg/kg/injection, schedule: Q04DX002 (ip), vehicle: Klucel (hydroxypropylcellulose) (HPC)) 94 % of control; under setting [9], 109 % of control; (dose: 200.0 mg/kg/injection, schedule: Q04DX002 (ip), vehicle: Klucel (hydroxypropylcellulose) (HPC)) 91 % of control.
Consider `CCCCCCC(=O)/C=C/c1ccccc1OCOC`, for which the T/C runs as follows: under setting [1], 100 % of control (2×) and 108 % of control; under setting [2], 99 % of control and 100 % of control and 106 % of control; under setting [3], 103 % of control and 111 % of control; (dose: 400.0 mg/kg/injection, schedule: Q01DX009 (ip), vehicle: Klucel (hydroxypropylcellulose) (HPC)) 117 % of control.
Regarding `NS(=O)(=O)c1ccc(Nc2c3ccc(Cl)cc3nc3ncccc23)cc1`, the T/C was 108 % of control under setting [10], 101 % of control under setting [11] and 94 % of control under setting [12].
As to `O=[N+]([O-])c1ccc(N/N=C(/C(=N/Nc2ccc([N+](=O)[O-])cc2)c2ccccc2)c2ccccc2)cc1`, the T/C reads like this: (dose: 25.0 mg/kg/injection, schedule: Q01DX009 (ip), vehicle: other) 87 % of control; under setting [13], 89 % of control; under setting [14], 93 % of control; (dose: 100.0 mg/kg/injection, schedule: Q01DX009 (ip), vehicle: saline sonified) 90 % of control; under setting [15], 93 % of control; (dose: 200.0 mg/kg/injection, schedule: Q01DX009 (ip), vehicle: saline sonified) 86 % of control. Further, the T/C reads like this: (dose: 400.0 mg/kg/injection, schedule: Q01DX009 (ip), vehicle: other) 93 % of control; (dose: 400.0 mg/kg/injection, schedule: Q01DX009 (ip), vehicle: saline sonified) 90 % of control.
As for `CC1CC(C(=O)O)N1` (stereo not drawn), the T/C is, setting by setting: under setting [16], 101 % of control; under setting [17], 98 % of control; (dose: 200.0 mg/kg/injection, schedule: Q01DX005 (ip), vehicle: saline) 97 % of control.
On to `CN(C)CCCCNc1c2c(nc3c(Cl)cccc13)CCC2`, for which the T/C was 99 % of control under setting [10], 105 % of control under setting [11] and 99 % of control under setting [12].
Take `CCN(CC)CCOc1ccc(C(=O)CC(=O)c2c(-c3ccccc3)n(C)c3ccccc23)cc1`: the T/C was 101 % of control (dose: 50.0 mg/kg/injection, schedule: Q01DX001 (ip), vehicle: saline); 94 % of control (dose: 100.0 mg/kg/injection, schedule: Q01DX001 (ip), vehicle: saline); 91 % of control (dose: 200.0 mg/kg/injection, schedule: Q01DX001 (ip), vehicle: saline).
For `CCCCCCCC(=O)Nc1cc2c3c(c1)CCC(=O)N3CCC2`, the T/C under setting [7] was 100 % of control, the T/C under setting [8] is 100 % of control and the T/C under setting [9] is 98 % of control.
Regarding `COC1OC2COC(c3ccccc3)OC2C(O)C1N` (stereo not drawn), the T/C is, setting by setting: (dose: 25.0 mg/kg/injection, schedule: Q01DX009 (ip), vehicle: saline with Tween-80) 112 % of control; (dose: 25.0 mg/kg/injection, schedule: Q04DX003 (ip), vehicle: saline with Tween-80) 100 % of control; (dose: 50.0 mg/kg/injection, schedule: Q01DX009 (ip), vehicle: saline with Tween-80) 95 % of control; (dose: 50.0 mg/kg/injection, schedule: Q04DX003 (ip), vehicle: saline with Tween-80) 100 % of control; (dose: 100.0 mg/kg/injection, schedule: Q01DX009 (ip), vehicle: saline with Tween-80) 104 % of control; (dose: 100.0 mg/kg/injection, schedule: Q04DX003 (ip), vehicle: saline with Tween-80) 100 % of control.
For the compound `O=c1[nH]c(=O)c2nc(-c3cccnc3)cnc2[nH]1`, the T/C (dose: 50.0 mg/kg/injection, schedule: Q01DX009 (ip), vehicle: saline) is 103 % of control and 120 % of control.
With `CC(C)NC(=O)c1ccc(C/[N+]([O-])=C/c2ccccc2)cc1`, the T/C (dose: 50.0 mg/kg/injection, schedule: Q01DX009 (ip), vehicle: distilled water + Tween-80) was 95 % of control; the T/C under setting [13] is 121 % of control; the T/C (dose: 100.0 mg/kg/injection, schedule: Q01DX009 (ip), vehicle: distilled water + Tween-80) was 92 % of control and 95 % of control; the T/C under setting [14] is 103 % of control; the T/C (dose: 200.0 mg/kg/injection, schedule: Q01DX009 (ip), vehicle: distilled water + Tween-80) is 89 % of control and 92 % of control; the T/C under setting [15] was 116 % of control. For the same compound, the T/C by setting is: (dose: 400.0 mg/kg/injection, schedule: Q01DX009 (ip), vehicle: distilled water + Tween-80) 92 % of control; (dose: 800.0 mg/kg/injection, schedule: Q01DX009 (ip), vehicle: other) 153 % of control.
Regarding `CCOC(=O)c1c(C)n(C)c2c1nnc1ccccc12`, the T/C runs as follows: under setting [4], 98 % of control; under setting [5], 90 % of control; under setting [6], 86 % of control.
For the compound `OC1C(CCl)OC(OC2(CCl)OC(CCl)C(O)C2O)C(O)C1O` (stereo not drawn), the T/C under setting [1] is 94 % of control, the T/C under setting [2] was 109 % of control and the T/C under setting [3] was 110 % of control.
In the case of `CCN(CC)CCNC(=O)C(=O)NCCN(CC)CC`, the T/C was 97 % of control under setting [16] and 99 % of control under setting [17].

The values are drawn from PubChem BioAssay AID330 (DTP/NCI, 2004).
